Biological target: ATX (human His-tagged) (Homo sapiens (Human), UniProt Q13822)
Assay: Human ATX enzyme inhibition assay (fluorescence quenching, MR121 substrate)
Format: biochemical
Settings: 30 nM ATX, 1 μM MR121 substrate, 30° C., pH 8.0
Summary of the method: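 Tris-HCl buffer at pH 8.0 contained 140 mM NaCl, 5 mM KCl, 1 mM each CaCl2 and MgCl2, and 0.01% Triton X-100. The MR121 substrate (1 μM final) was incubated with enzyme for 15 min at 30 °C, and activity was read by fluorescence quenching.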

IC50 [nM]	Structure (SMILES)
36	O=C(NCc1cnn[nH]1)[C@H]1C[C@@H]2CN(C(=O)OCc3cc(Cl)cc(Cl)c3)C[C@@H]2C1 [Example 4.33, (3aR,5s,6aS)-5-[(3H-[1,2,3]triazol-4-ylmethyl)-carbamoyl]-hexahydro-cyclopenta[c]pyrrole-2-carboxylic acid 3,5-dichloro-benzyl ester]
58	O=C(CCc1ccc(C(F)(F)F)cn1)N1C[C@@H]2CN(C(=O)c3ccc4[nH]nnc4c3)C[C@H]2C1 [Example 17.09, 1-[(3aR,6aR)-5-(1H-benzotriazole-5-carbonyl)-hexahydro-pyrrolo[3,4-c]pyrrol-2-yl]-3-(5-trifluoromethyl-pyridin-2-yl)-propan-1-one]
16	O=C(CCc1ccc(OC(F)F)cc1)N1C[C@@H]2CN(C(=O)c3ccc4[nH]nnc4c3)C[C@H]2C1 [Example 17.03, 1-[(3aR,6aR)-5-(1H-benzotriazole-5-carbonyl)-hexahydro-pyrrolo[3,4-c]pyrrol-2-yl]-3-(4-difluoromethoxy-phenyl)-propan-1-one]
9	Cc1ccc(C(C)C)c(OCC(=O)N2CC[C@@H]3CN(C(=O)c4ccc5[nH]nnc5c4)C[C@@H]3CC2)c1 [Example 15.97]
6	O=C(/C=C/c1cc(Cl)cc(OC(F)(F)F)c1)N1C[C@@H]2CN(C(=O)c3ccc4[nH]nnc4c3)C[C@H]2C1 [Example 15.48]
1480	O=C(OC1(c2cccc(Cl)c2)CC1)N1C[C@@H]2CN(C(=O)c3ccc4[nH]nnc4c3)C[C@@H]2C1 [Example 4.12, (3aS,6aR)-5-(1H-benzotriazole-5-carbonyl)-hexahydro-pyrrolo[3,4-c]pyrrole-2-carboxylic acid 1-(3-chloro-phenyl)-cyclopropyl ester]
8	O=C(c1ccc(-c2ccc(Cl)cc2)cc1)N1C[C@@H]2CN(C(=O)[C@@H]3CCc4[nH]nnc4C3)C[C@H]2C1 [Example 19.11, [(3aS,6aS)-5-(4′-chloro-biphenyl-4-carbonyl)-hexahydro-pyrrolo[3,4-c]pyrrol-2-yl]-(R)-4,5,6,7-tetrahydro-1H-benzotriazol-5-yl-methanone]
36	O=C(OCc1cc(Cl)cc(Cl)c1)N1CC[C@@H]2CN(C(=O)c3ccc4[nH]nnc4c3)C[C@@H]2C1 [Example 10A, (3aR,7aS)-2-(1H-Benzotriazole-5-carbonyl)-octahydro-pyrrolo[3,4-c]pyridine-5-carboxylic acid 3,5-dichloro-benzyl ester]
77	O=C(CCc1cc(Cl)cc(Cl)c1)N1C[C@@H]2CN(C(=O)c3ccc4[nH]c(=O)oc4c3)C[C@@H]2C1 [Example 1.02, 6-((3aR,6aS)-5-(3-(3,5-dichlorophenyl)propanoyl)octahydropyrrolo[3,4-c]pyrrole-2-carbonyl)benzo[d]oxazol-2(3H)-one]
36	O=C(OCc1cc(Cl)cc(Cl)c1)N1C[C@H]2C[C@H](Oc3ccc4[nH]c(=O)oc4c3)C[C@H]2C1 [Example 3, (3aR,5s,6aS)-3,5-Dichlorobenzyl 5-(2-oxo-2,3-dihydrobenzo[d]oxazol-6-yloxy)hexahydrocyclopenta[c]pyrrole-2(1H)-carboxylate]
2	CCOc1nc(C(=O)N2C[C@@H]3CN(C(=O)[C@@H]4CCc5[nH]nnc5C4)C[C@H]3C2)cc2ccccc12 [Example 19.35, [(3aS,6aS)-5-[(5R)-4,5,6,7-tetrahydro-1H-benzotriazole-5-carbonyl]-1,3,3a,4,6,6a-hexahydropyrrolo[3,4-c]pyrrol-2-yl]-(1-ethoxyisoquinolin-3-yl)methanone]
47	O=C(OCc1cc(Cl)cc(Cl)c1)N1C[C@@H]2CCN(C(=O)c3ccc4[nH]nnc4c3)C[C@@H]2C1 (relative stereo) [Example 4.08, cis-3,5-dichlorobenzyl 5-(1H-benzo[d][1,2,3]triazole-5-carbonyl)hexahydro-1H-pyrrolo[3,4-c]pyridine-2(3H)-carboxylate]
29	O=C(CCc1ccc(-c2ccccc2)nc1)N1C[C@@H]2CN(C(=O)c3ccc4[nH]nnc4c3)C[C@H]2C1 [Example 15.85]
2	CC(C)(C)c1cc(C#N)ccc1OCC(=O)N1C[C@@H]2CN(C(=O)[C@@H]3CCc4[nH]nnc4C3)C[C@H]2C1 [Example 19.31, 4-[2-[(3aS,6aS)-5-[(5R)-4,5,6,7-tetrahydro-1H-benzotriazole-5-carbonyl]-1,3,3a,4,6,6a-hexahydropyrrolo[3,4-c]pyrrol-2-yl]-2-oxoethoxy]-3-tert-butylbenzonitrile]
1	O=C(/C=C/c1ccc(OC(F)(F)F)c(F)c1)N1CC[C@@H]2CN(C(=O)c3ccc4[nH]nnc4c3)C[C@@H]2CC1 [Example 1.15, (E)-1-((3aR,8aS)-2-(1H-benzo[d][1,2,3]triazole-5-carbonyl)octahydropyrrolo[3,4-d]azepin-6(7H)-yl)-3-(3-fluoro-4-(trifluoromethoxy)phenyl)prop-2-en-1-one]
6	O=C(/C=C/c1cc(Cl)cc(Cl)c1)N1C[C@@H]2CN(C(=O)c3ccc4[nH]nnc4c3)C[C@H]2C1 [Example 15.42]

IC50 [nM]	Structure (SMILES)
1380	O=C(OCCC1CCCCC1)N1C[C@@H]2CN(C(=O)c3ccc4[nH]nnc4c3)C[C@@H]2C1 [Example 4.22, (3aR,6aS)-2-cyclohexylethyl 5-(1H-benzo[d][1,2,3]triazole-5-carbonyl)hexahydropyrrolo[3,4-c]pyrrole-2(1H)-carboxylate]
12	O=C(/C=C/c1ccc(Cl)cc1)N1CC[C@@H]2CN(C(=O)c3ccc4[nH]nnc4c3)C[C@@H]2CC1 [Example 15.06]
8	O=C(/C=C/c1ccc(-c2ccccc2)nc1)N1C[C@@H]2CN(C(=O)c3ccc4[nH]nnc4c3)C[C@H]2C1 [Example 15.77]
5	O=C(CCc1ccc(OC(F)(F)F)cc1)N1C[C@@H]2CN(C(=O)c3ccc4[nH]c(=O)oc4c3)C[C@H]2C1 [Example 2.03, 6-[(3aR,6aR)-2-[3-[4-(trifluoromethoxy)phenyl]propanoyl]-1,3,3a,4,6,6a-hexahydropyrrolo[3,4-c]pyrrole-5-carbonyl]-3H-1,3-benzoxazol-2-one]
11	O=C(OCc1ccc(C(F)(F)F)cc1)N1C[C@@H]2CN(C(=O)c3ccc4[nH]nnc4c3)C[C@H]2C1 [Example 4.57, (3aS,6aS)-5-(1H-benzotriazole-5-carbonyl)-hexahydro-pyrrolo[3,4-c]pyrrole-2-carboxylic acid 4-trifluoromethyl-benzyl ester]
1030	O=C(OCc1cc(Cl)cc(Cl)c1)N1C[C@@H]2CN(C(=O)c3ccc4[nH]ncc4c3)C[C@@H]2C1 [Example 1.07, (3aR,6aS)-3,5-dichlorobenzyl 5-(1H-indazole-5-carbonyl)hexahydropyrrolo[3,4-c]pyrrole-2(1H)-carboxylate]
247	O=C(/C=C/c1ccc(OC(F)(F)F)cc1)N1CC[C@@H]2CN(C(=O)N3CCc4[nH]cnc4C3)C[C@@H]2CC1 [Example 9.06]
14	O=C(/C=C/c1ccc(Cl)cc1Cl)N1CC[C@@H]2CN(C(=O)c3ccc4[nH]nnc4c3)C[C@@H]2CC1 [Example 15.30]
40	N#Cc1ccc(COC(=O)N2C[C@@H]3CN(C(=O)c4ccc5[nH]nnc5c4)C[C@H]3C2)c(OCC(F)(F)F)c1 [Example 4.66, (3aS,6aS)-5-(1H-benzotriazole-5-carbonyl)-hexahydro-pyrrolo[3,4-c]pyrrole-2-carboxylic acid 4-cyano-2-(2,2,2-trifluoro-ethoxy)-benzyl ester]
8	O=C(/C=C/c1cc(Cl)cc(C(F)(F)F)c1)N1CC[C@@H]2CN(C(=O)c3ccc4[nH]nnc4c3)C[C@@H]2CC1 [Example 1.27, (E)-1-((3aR,8aS)-2-(1H-benzo[d][1,2,3]triazole-5-carbonyl)octahydropyrrolo[3,4-d]azepin-6(7H)-yl)-3-(3-chloro-5-(trifluoromethyl)phenyl)prop-2-en-1-one]
7460	Cc1ccc(OCC(=O)N2CC[C@@H]3CN(C(=O)c4ccc5[nH]nnc5c4)C[C@@H]3CC2)c(C2CCN(C)C2)c1 (stereo partly drawn) [Example 1.36, 1-[(3aS,8aR)-2-(1H-benzotriazole-5-carbonyl)-octahydro-pyrrolo[3,4-d]azepin-6-yl]-2-[4-methyl-2-(1-methyl-pyrrolidin-3-yl)-phenoxy]-ethanone]
162	O=C(/C=C/c1ccc(OC(F)(F)F)cc1)N1CC[C@@H]2CN(C(=O)NCCc3cnn[nH]3)C[C@@H]2CC1 [Example 9.09, (3aR,8aS)-N-(2-(1H-1,2,3-triazol-5-yl)ethyl)-6-((E)-3-(4-(trifluoromethoxy)-phenyl)acryloyl)octahydropyrrolo[3,4-d]azepine-2(1H)-carboxamide]
19	CC(C)c1ccccc1OCC(=O)N1C[C@@H]2CN(C(=O)c3ccc4[nH]nnc4c3)C[C@H]2C1 [Example 15.86]
83	O=C(/C=C/c1ccc(OC(F)(F)F)cc1)N1CC[C@@H]2CN(C(=O)[C@H]3CCc4[nH]nnc4C3)C[C@@H]2CC1 [Example 1.20, (E)-1-[(3aS,8aR)-2-((S)-4,5,6,7-tetrahydro-1H-benzotriazole-5-carbonyl)-octahydro-pyrrolo[3,4-d]azepin-6-yl]-3-(4-trifluoromethoxy-phenyl)-prop-2-en-1-one]
16	O=C(OCc1ccc(OC(F)(F)F)cc1)N1C[C@@H]2CN(C(=O)c3ccc4[nH]nnc4c3F)C[C@H]2C1 [Example 1.52, (3aS,6aS)-5-(4-fluoro-1H-benzotriazole-5-carbonyl)-hexahydro-pyrrolo[3,4-c]pyrrole-2-carboxylic acid 4-trifluoromethoxy-benzyl ester]

Structure (SMILES)	IC50 [nM]
O=C(c1cnc(OC2CCC2)c(C(F)(F)F)c1)N1C[C@@H]2CN(C(=O)c3ccc4[nH]nnc4c3)C[C@H]2C1 [Example 19.39, ((3aS,6aS)-5-(1H-benzo[d][1,2,3]triazole-5-carbonyl)hexahydropyrrolo[3,4-c]pyrrol-2(1H)-yl)(6-cyclobutoxy-5-(trifluoromethyl)pyridin-3-yl)methanone]	7

Reference: patent US10669268B2, “Bicyclic derivatives” (Hoffmann-La Roche Inc., priority 2012, dated 2020)
